Experimental data as given in patent publication US12527849B2, “Apparatus for determining administration form of a composition of an engineered virus-based nanoparticle for a treatment of an autoimmune condition” (Diamante Srl, priority 2021, dated 2026).

Tests used:
TGF-β1 = test: Cytokine ELISA in CIA mice, day 60: TGF-β1; format: in vivo; conditions: serum pooled from five CIA mice
Text: (§1) With continued reference to FIG. 1, in some embodiments, administration 116 may be done to an animal. As a non-limiting example, the animal may include a mouse, a fish, a rabbit, human, and the like. As a non-limiting example, administration 116 of composition of the engineered virus-based nanoparticle for a treatment of an autoimmune condition may be done to dilute, brown, and non-agouti (DBA) mice based on their susceptibility to collagen-induced arthritis (CIA). Female DBA/1 mice 6 to 8 weeks of age may be maintained under specific pathogen-free conditions. CIA may be induced by the intradermal tail base injection of 100 μg of chicken type II collagen (Sigma-Aldrich) as previously described. Five mice per group may be immunized on days 0 and 21 to induce arthritis. The onset of disease may be confirmed on the day that swelling or erythema may be observed in any paw, typically 4 to 10 days after the second immunization. Each experimental group may be treated seven times, 5 days apart, starting from day 28 after the first immunization, with intraperitoneal injections of saline (200 μI per mouse), TBSV·pLIp1, TBSV·pFADK2, pLIp1+IFA, and pFADK2+IFA (all 50 μg per mouse in 200 μl) or dexamethasone (5 μg per mouse in 200 μl). […] CIA may be assessed using a macroscopic score system based on the visual identification of arthritic limbs.

IFN-γ = test: Cytokine ELISA in CIA mice, day 60: IFN-γ; format: in vivo
Text: as §1, with “immunization.” for “immunization. Each experimental group may be treated seven times, 5 days apart, starting from day 28 after the first immunization, with intraperitoneal injections of saline (200 μI per mouse), TBSV·pLIp1, TBSV·pFADK2, pLIp1+IFA, and pFADK2+IFA (all 50 μg per mouse in 200 μl) or dexamethasone (5 μg per mouse in 200 μl).”, “limbs. The clinical severity of arthritis may be evaluated as follows: Each mouse may be inspected every 2 to 3 days for three different parameters: (i) swelling of the hind ankle and foot, measured with calipers; (ii) erythema of each leg; and (iii) swelling of the fingers. The RA index for each mouse was expressed as the mean of the three scores from the individual parameters. At the end of the experiment (60 days), we determined the proportion of CD25+Foxp3+ cells in the lymph nodes and measured cytokine titers in the lymph nodes, joints, and serum.” for “limbs.”
With continued reference to FIG. 1, in some embodiments, processor 104 may determine critical administration 124 as a function of a cytokine profile and a proportion of CD25^+ Foxp3^+ cells. […] In some embodiments, to quantify cytokines in DBA mice, joint tissues may be pulverized and resuspended in 1 ml of lysis medium per 100-mg joint weight for 60 min at 37′C, followed by centrifugation to remove debris. […]

SMILES: C[C@@H]1C[C@H]2[C@@H]3CCC4=CC(=O)C=C[C@]4(C)[C@@]3(F)[C@@H](O)C[C@]2(C)[C@@]1(O)C(=O)CO [Dexamethasone, dexamethasone]
- TGF-β1 (TGF-β1): 10385.0 pg/mL
- IFN-γ J (IFN-γ; joint supernatant, CIA mice, day 60, mean n=3): 187.23 pg/mL
- IFN-γ LN (IFN-γ; lymph node supernatant, CIA mice, day 60, mean n=3): 210.86 pg/mL
- IFN-γ S (IFN-γ; serum pooled from five CIA mice, day 60): 75.6 pg/mL
